Among the data in US20240383891A1, “BENZIMIDAZOLE AND RELATED ANALOGS FOR INHIBITING YAP/TAZ-TEAD” (SpringWorks Therapeutics, Inc., priority 2023, published 2024) are IC50 and EC50 values, retold here.

Assay type in all cases: cell-based
Test [1] has as its system YAP/TAZ-TEAD transcription. Briefly: reporter gene assay for measuring the inhibition of YAP/TAZ-TEAD transcription (TEAD-responsive element luciferase reporter in Hek293T cells). As to conditions: Homo sapiens, HEK-293T; Hek293T cells transiently transfected with TEAD-responsive element luciferase reporter, 24 hours incubation. As to the method: Example 21: Activity of compounds of the disclosure in a reporter gene assay for measuring the inhibition of YAP/TAZ-TEAD transcription Hek293T cells are cultured in DMEM supplemented with 10% fetal bovine serum, Sodium pyruvate, Sodium bicarbonate, L-glutamine. The cells are harvested and transiently transfected with TEAD-responsive element luciferase reporter. Transfected cells are plated in 384-well plate containing pre-diluted compounds. After 24 hours incubation at 37° C./5% CO2, assay plates were cooled to room temperature and levelled to an equal volume per well, prior to the addition of 25 uL luciferase substrate SteadyLite (Perkin Elmer)/well. The plate was shaken for 10 min at 600 rpm, centrifuged for 1 min at 500 rpm and measured with an Envision reader (PerkinElmer). The amount of relative light units produced by the TEAD reporter is used to calculate the percentage of inhibition. The percent of reporter inhibition was calculated in the presence of a positive control inhibitor (100% inhibition) versus a condition with the presence of the vehicle basal activity of the reporter (0% inhibition). The ability of a test compound to inhibit this activity was determined as: Percentage inhibition=[[…]((RLU determined in the presence of vehicle—RLU determined for sample with test compound present) divided by (RLU determined in the presence of vehicle—RLU determined for sample with positive control inhibitor))] *100.
The activities of example compounds tested are depicted in Table 3. The activity ranges A, B and C refer to IC50 values in the reporter gene assay as follows: “A”: IC50<1 μM; “B”: 1 μM≤IC50 10 μM and “C”: IC50>10 μM; NT=not tested.
(In general: A reporter such as luciferase makes a cellular process visible.)

Another test deals with NCI-H226. Kind of test: mesothelioma cell line proliferation assay, NCI-H226. As to conditions: Homo sapiens, 144 h; NCI-H226 mesothelioma cells, 6 days incubation, ATPlite cell viability. As to the method:
(§1) Mesothelioma cell lines, NCI-H226 and NCI-H2052 (both sourced from the ATCC cell culture collection) are plated in 96-well plates (Corning® 96 Well White Polystyrene Microplate clear flat bottom, white polystyrene (TC-Treated)), at 1500 cells/well in full medium (RPMI 1640 ATCC modification with L-glutamine, HEPES, Phenol Red, Sodium Pyruvate, High glucose, Low sodium bicarbonate and 10% fetal bovine serum). Cells are incubated overnight at 37° C. in an incubator with 5% CO2. Then compounds, dissolved in DMSO, are added in dose-response. Cells are incubated with compound dilutions for another 6 days at 37° C. in an incubator with 5% CO2. Cell viability is quantitated using the ATPlite kit (Perkin-Elmer) and the luminescence is read-out using an Envision instrument (Perkin-Elmer). The amount of relative light units produced using the ATPlite kit is used to calculate percent of inhibition. The activities of some example compounds are depicted in Table 4. The activity ranges A, B and C refer to EC50 values in the mesothelioma cell line proliferation assay as described as follows: “A”: EC50<1 μM; “B”: 1 μM s […] and “C”: EC50>10 μM; NT: not tested.
(ATP-based viability assays read luminescence as a measure of living cells.)

For another test, the system named is NCI-H2052. Kind of test: mesothelioma cell line proliferation assay, NCI-H2052. Particulars: Homo sapiens, 144 h; NCI-H2052 mesothelioma cells, 6 days incubation, ATPlite cell viability. As to the method:
as §1

As for `O=C(O)[C@H]1C[C@H]1c1nc(-c2ccc(C(F)(F)F)cc2)c2ccccn12` (racemic) [Cpd. No. 018, cis-2-(1-(4-(trifluoromethyl)phenyl)imidazo[1,5-a]pyridin-3-yl)cyclopropane-1-carboxylic acid], in test [1], the IC50 – broadly, the point on the concentration scale where inhibition reaches its midpoint – was more than 10 µM.

Regarding `O=C(O)[C@@H]1C[C@H]1c1nc(-c2ccc(C(F)(F)F)cc2)c2ccccn12` (relative stereo) [Cpd. No. 012, trans-2-(1-(4-(trifluoromethyl)phenyl)imidazo[1,5-a]pyridin-3-yl)cyclopropane-1-carboxylic acid], the IC50 in test [1] was less than 1 µM.

Molecule `C=CC(=O)NCc1nc(-c2ccc(C(F)(F)F)cc2)n2ccccc12` [Cpd. No. 001, N-((3-(4-(trifluoromethyl)phenyl)imidazo[1,5-a]pyridin-1-yl)methyl)acrylamide] returned an IC50 in test [1] of less than 1 µM. For the same molecule, the EC50 in the test with NCI-H226 and with NCI-H2052 was less than 1 µM each time.

In test [1], `C=CC(=O)NCc1nc(-c2ccc(C(F)(F)F)cc2)c2ccccn12` [Cpd. No. 002, N-((1-(4-(trifluoromethyl)phenyl)imidazo[1,5-a]pyridin-3-yl)methyl)acrylamide] registered an IC50 of less than 1 µM. For the same molecule, the EC50 in the test with NCI-H226 and in the test on NCI-H2052 was less than 1 µM throughout.

The molecule `CCC(=O)NCc1nc(-c2ccc(C(F)(F)F)cc2)c2ccccn12` [Cpd. No. 003, N-((1-(4-(trifluoromethyl)phenyl)imidazo[1,5-a]pyridin-3-yl)methyl)propionamide] registered a half-maximal inhibitory concentration (IC50) in test [1] of more than 10 µM.

Turning to `CS(=O)(=O)NCc1nc(-c2ccc(C(F)(F)F)cc2)c2ccccn12` [Cpd. No. 004, N-((1-(4-(trifluoromethyl)phenyl)imidazo[1,5-a]pyridin-3-yl)methyl)methanesulfonamide], the IC50 in test [1] was more than 10 µM.

The molecule `CCC(=O)NCc1nc(-c2ccc(C(F)(F)F)cc2)n2ccccc12` [Cpd. No. 005, N-((3-(4-(trifluoromethyl)phenyl)imidazo[1,5-a]pyridin-1-yl)methyl)propionamide] yielded an IC50 in test [1] of more than 10 µM.

Consider `CS(=O)(=O)NCc1nc(-c2ccc(C(F)(F)F)cc2)n2ccccc12` [Cpd. No. 006, N-((3-(4-(trifluoromethyl)phenyl)imidazo[1,5-a]pyridin-1-yl)methyl)methanesulfonamide], for which, in test [1], the 50% inhibitory concentration (IC50) was 1 to 10 µM.

`O=C(O)/C=C/c1nc(-c2ccc(C(F)(F)F)cc2)n2ccccc12` [Cpd. No. 007, (E)-3-(3-(4-(trifluoromethyl)phenyl)imidazo[1,5-a]pyridin-1-yl)acrylic acid]: the IC50 in test [1] was less than 1 µM.

As for `O=C(O)/C=C/c1nc(-c2ccc(C(F)(F)F)cc2)c2ccccn12` [Cpd. No. 008, (E)-3-(1-(4-(trifluoromethyl)phenyl)imidazo[1,5-a]pyridin-3-yl)acrylic acid], the 50% inhibitory concentration (IC50) in test [1] is less than 1 µM. Moreover, the EC50 with NCI-H226 and in the test on NCI-H2052 was less than 1 µM throughout.

Molecule `C=CC(=O)NCc1nc(-c2ccc(C(F)(F)F)cc2)n2cc(C(F)(F)F)ccc12` [Cpd. No. 009, N-((6-(trifluoromethyl)-3-(4-(trifluoromethyl)phenyl)imidazo[1,5-a]pyridin-1-yl)methyl)acrylamide] yielded a half-maximal inhibitory concentration (IC50) in test [1] of less than 1 µM. The EC50 in the test with NCI-H226 and with NCI-H2052 was less than 1 µM throughout.

Molecule `CC(=O)NCc1nc(-c2ccc(C(F)(F)F)cc2)n2cc(C(F)(F)F)ccc12` [Cpd. No. 010, N-((6-(trifluoromethyl)-3-(4-(trifluoromethyl)phenyl)imidazo[1,5-a]pyridin-1-yl)methyl)acetamide] displayed an IC50 in test [1] of more than 10 µM.

For the molecule `CS(=O)(=O)NCc1nc(-c2ccc(C(F)(F)F)cc2)n2cc(C(F)(F)F)ccc12` [Cpd. No. 011, N-((6-(trifluoromethyl)-3-(4-(trifluoromethyl)phenyl)imidazo[1,5-a]pyridin-1-yl)methyl)methanesulfonamide], the IC50 in test [1] is more than 10 µM.

For the molecule `O=Cc1ccc(-c2nc(-c3ccc(C(F)(F)F)cc3)c3ccccn23)cc1O` [Cpd. No. 013, 2-hydroxy-4-(1-(4-(trifluoromethyl)phenyl)imidazo[1,5-a]pyridin-3-yl)benzaldehyde], the half-maximal inhibitory concentration (IC50) in test [1] was less than 1 µM.

In turn, `O=C(O)C1CC(O)(c2nc(-c3ccc(C(F)(F)F)cc3)c3ccccn23)C1` (stereo not shown) [Cpd. No. 014, 3-hydroxy-3-(1-(4-(trifluoromethyl)phenyl)imidazo[1,5-a]pyridin-3-yl)cyclobutane-1-carboxylic acid] showed a concentration for half-maximal inhibition (IC50) in test [1] of more than 10 µM.

As to `O=C(O)Cc1nc(-c2ccc(C(F)(F)F)cc2)c2ccccn12` [Cpd. No. 015, 2-(1-(4-(trifluoromethyl)phenyl)imidazo[1,5-a]pyridin-3-yl)acetic acid], the concentration for half-maximal inhibition (IC50) in test [1] is more than 10 µM.

In turn, `O=C(O)C1CCN1c1nc(-c2ccc(C(F)(F)F)cc2)c2ccccn12` (stereo not shown) [Cpd. No. 016, 1-(1-(4-(trifluoromethyl)phenyl)imidazo[1,5-a]pyridin-3-yl)azetidine-2-carboxylic acid] showed an IC50 in test [1] of more than 10 µM.

For `O=C(O)C1CN(c2nc(-c3ccc(C(F)(F)F)cc3)c3ccccn23)C1` [Cpd. No. 017, 1-(1-(4-(trifluoromethyl)phenyl)imidazo[1,5-a]pyridin-3-yl)azetidine-3-carboxylic acid], the half-inhibitory concentration (IC50) in test [1] is more than 10 µM.

As to `O=C(O)[C@H]1C[C@@H](c2nc(-c3ccc(C(F)(F)F)cc3)c3ccccn32)C1` [Cpd. No. 019, cis-3-(1-(4-(trifluoromethyl)phenyl)imidazo[1,5-a]pyridin-3-yl)cyclobutane-1-carboxylic acid], the half-maximal inhibitory concentration (IC50) in test [1] was more than 10 µM.

With `O=C(O)[C@H]1C[C@H](c2nc(-c3ccc(C(F)(F)F)cc3)c3ccccn32)C1` [Cpd. No. 020, trans-3-(1-(4-(trifluoromethyl)phenyl)imidazo[1,5-a]pyridin-3-yl)cyclobutane-1-carboxylic acid], in test [1], the concentration for half-maximal inhibition (IC50) was less than 1 µM.

Turning to `O=C(O)CNc1nc(-c2ccc(C(F)(F)F)cc2)c2ccccn12` [Cpd. No. 021, (1-(4-(trifluoromethyl)phenyl)imidazo[1,5-a]pyridin-3-yl)glycine], the IC50 in test [1] is more than 10 µM.

In test [1], `O=C(O)/C=C/c1nc(-c2ccc(C(F)(F)F)cc2)c2ccc(C(F)(F)F)cn12` [Cpd. No. 022, (E)-3-(6-(trifluoromethyl)-1-(4-(trifluoromethyl)phenyl)imidazo[1,5-a]pyridin-3-yl)acrylic acid] came in with a concentration for half-maximal inhibition (IC50) of less than 1 µM. Moreover, the concentration giving a half-maximal response (EC50) in the test with NCI-H226 and in the test on NCI-H2052 was less than 1 µM in each case.

As to `O=C(O)CCc1nc(-c2ccc(C(F)(F)F)cc2)c2ccccn12` [Cpd. No. 023, 3-(1-(4-(trifluoromethyl)phenyl)imidazo[1,5-a]pyridin-3-yl)propanoic acid], the IC50 in test [1] was less than 1 µM.

Regarding `CN(CC(=O)O)c1nc(-c2ccc(C(F)(F)F)cc2)c2ccccn12` [Cpd. No. 024, N-methyl-N-(1-(4-(trifluoromethyl)phenyl)imidazo[1,5-a]pyridin-3-yl)glycine], the IC50 in test [1] was in the range of 1 to 10 µM.

Regarding `O=c1[nH]nc(-c2nc(-c3ccc(C(F)(F)F)cc3)c3ccccn23)o1` [Cpd. No. 025, 5-(1-(4-(trifluoromethyl)phenyl)imidazo[1,5-a]pyridin-3-yl)-1,3,4-oxadiazol-2(3H)-one], in test [1], the IC50 was less than 1 µM. Further, the EC50 in the test on NCI-H226 and in the test on NCI-H2052 was less than 1 µM in each case.

Molecule `O=c1[nH]c(-c2nc(-c3ccc(C(F)(F)F)cc3)c3ccccn23)no1` [Cpd. No. 028, 3-(1-(4-(trifluoromethyl)phenyl)imidazo[1,5-a]pyridin-3-yl)-1,2,4-oxadiazol-5(4H)-one] yielded an IC50 in test [1] of less than 1 µM.

With `O=c1[nH]nc(-c2nc(-c3ccc(C(F)(F)F)cc3)c3ccccn23)[nH]1` [Cpd. No. 029, 5-(1-(4-(trifluoromethyl)phenyl)imidazo[1,5-a]pyridin-3-yl)-2,4-dihydro-3H-1,2,4-triazol-3-one], the 50% inhibitory concentration (IC50) in test [1] is 1 to 10 µM.

Regarding `O=C1CC(c2nc(-c3ccc(C(F)(F)F)cc3)c3ccccn23)=NO1` [Cpd. No. 030, 3-(1-(4-(trifluoromethyl)phenyl)imidazo[1,5-a]pyridin-3-yl)isoxazol-5(4H)-one], the half-maximal inhibitory concentration (IC50) in test [1] lay within 1 to 10 µM.
